Patent US20250360134A1, “6-6 OR 5-6 FUSED BICYCLIC COMPOUNDS COMPRISING A PYRI(MI)DINE RING USEFUL IN THE|TREATMENT OF INFECTIOUS DISEASES” (INSTITUT NATIONAL DE LA SANTE ET DE LA RECHERCHE MEDICALE …, priority 2020, published 2025)
Counter-ions that a name gives are not always drawn. Like-named read-outs stand apart in the source and are kept apart here.

Legend:
[1] = test system: human duplex sequence FdxT; experiment: FRET-melting, FdxT; conditions: duplex control, K+ condition, 2 μM compound, 0.2 μM oligonucleotide
[2] = test system: Plasmodium falciparum 3D7; experiment: In vitro antiplasmodial activity, SYBR Green I, strain 3D7
[3] = test system: HepG2 cells; experiment: Cytotoxicity evaluation, MTT; format: cell-based, human
Experimental: (§1) The aim of this assay was to evaluate the impact of metabolic activation of the tested compounds on cell viability.
(§2) A cytotoxicity evaluation was performed using the method reported in Emami S A et al., Iran J Basic Med Sci 2012; 15:807-11 to determine the cytotoxic concentrations 50% (CC50) and using doxorubicin as a cytotoxic reference compound. These assays were performed in human HepG2 cells. HepG2 cells were purchased from ATCC (ref HB-8065). These cells are a commonly used human hepatocarcinoma-derived cell line that has characteristics similar to those of primary hepatocytes. These cells express many hepatocyte-specific metabolic enzymes, thus enabling the cytotoxicity of tested product metabolites to be evaluated. Briefly, cells in 100 μl of complete RPMI medium [RPMI supplemented with 10% FCS, 1% 1-glutamine (200 mM), penicillin (100 U/ml), and streptomycin (100 μg/ml)] were inoculated into each well of 96-well plates and incubated at 37° C. in a humidified chamber in 6% CO2. After 24 hours, 100 μl of medium with test compound at various concentrations dissolved in DMSO (final concentration less than 0.5% v/v) was added, and the plates were incubated for 72 hours at 37° C. Duplicate assays were performed for each sample. Each well was microscopically examined for precipitate formation before the medium was aspirated from the wells. After aspiration, 100 μl of MTT solution (0.5 mg/ml in medium without FCS) were then added to each well. Cells were incubated for 2 hours at 37° C. MTT solution was removed, and DMSO (100 μl) was added to dissolve the resulting blue formazan crystals. Plates were shaken vigorously (300 rpm) for 5 min. The absorbance was measured at 570 nm with 630 nm as reference wavelength in a BIO-TEK ELx808 Absorbance Microplate Reader. DMSO was used as blank and doxorubicin (Sigma-Aldrich) as positive control. Cell viability was calculated as percentage of control (cells incubated without compound).

[4] = test system: T. brucei brucei AnTat 1.9; experiment: In vitro antitrypanosomal activity, Alamar Blue assay; format: cell-based, Trypanosoma brucei brucei; conditions: read-out: IC50 T. brucei brucei
Experimental: The effects of the tested compounds on the growth of T. brucei brucei were assessed using an Alamar Blue® assay described in B. Raz et al., Acta Trop. 1997, 68, 139. T. brucei brucei AnTat 1.9 (IMTA, Antwerpen, Belgium) was cultured in MEM with Earle's salts, supplemented according to the protocol disclosed in T. Baltz et al., EMBO J. 1985, 4, 1273, with the following modifications: 0.5 mM mercaptoethanol (Sigma-Aldrich), 1.5 mM 1-cysteine (Sigma-Aldrich), 0.05 mM bathocuproine sulfate (Sigma-Aldrich), and 20% heat-inactivated horse serum (Gibco, France) at 37° C. and 5% CO2. Samples were incubated at an average density of 2000 parasites/well in sterile 96-well plates (Fisher, France) with various concentrations of compounds dissolved in 0.9% NaCl. All doses were tested in duplicate. Appropriate controls treated with solvents 0.9% NaCl or DMSO or with suramin, pentamidine, eflornithine, and fexinidazole (reference drugs purchased from Sigma-Aldrich and Fluorochem, UK) were added to each set of experiments. After a 69-hour incubation at 37° C., 10 μl of the viability marker Alamar Blue (Fisher) was added to each well, and the plates were incubated for 5 hour. The plates were read in a PerkinElmer ENSPIRE (Germany) microplate reader using an excitation wavelength of 530 nm and an emission wavelength of 590 nm. The IC50 was defined as the concentration of drug necessary to inhibit by 50% the activity of T. brucei brucei compared to the control. IC50 values were calculated using a non-linear regression analysis of dose-response curves performed using GraphPad Prism software (USA). IC50 values were calculated from three independent experiments.

[5] = test system: Plasmodium falciparum W2; experiment: In vitro antiplasmodial activity, SYBR Green I, strain W2
Experimental: The in vitro antiplasmodial activities were tested over concentrations ranging from 39 to 40 μm against culture-adapted Plasmodium falciparum: reference strains 3D7 and W2. […] The parasites were cultivated in RPMI medium (Sigma-Aldrich, Lyon, France) supplemented with 0.5% Albumax I (Life Technologies Corporation, Paisley, UK), hypoxanthine (Sigma-Aldrich), and gentamicin (Sigma-Aldrich) with human erythrocytes and were incubated at 37° C. in a candle jar, as described in Desjardins R E et al., Antimicrob Agents Chemother, 1979; 16:710-18.
The P. falciparum drug susceptibility test was carried out in 96-well flat bottom sterile plates in a final volume of 250 μL. After a 48-hour incubation with the drugs, quantities of DNA in treated and control cultures of parasites in human erythrocytes were quantified using the SYBR Green I (Sigma-Aldrich) fluorescence-based method as described in Bennett T N et al, Antimicrob Agents Chemother, 2004; 48:1807-10. Briefly, after incubation, plates were frozen at −20° C. until use. Plates were then thawed for 2 hours at room temperature, and 100 μL of each homogenized culture was transferred to a well of a 96-well flat bottom sterile black plate (Nunc, Inc., Rochester, NY) that contained 100 μL of the SYBR Green I lysis buffer (2×SYBR Green, 20 mM Tris base pH 7.5, 5 mM EDTA, 0.008% w/v saponin, 0.08% w/v Triton X-100). […] Plates were incubated for 1 hour at room temperature and then read on a fluorescence plate reader (Tecan, Grödig, Austria) using excitation and emission wavelengths of 485 and 535 nm, respectively. Concentrations inhibiting 50% of the parasite's growth (half maximal inhibitory concentration or IC50 values) were then calculated from the obtained experimental results by non-linear regression analysis of data from dose-response curves, using TableCurve 2D version 5.0 software (Systat Software, San Jose, CA). IC50 values are reported as means calculated from three independent experiments, as described in H. Kaddouri et al., Antimicrob.

[6] = test system: human telomeric sequence F21T; experiment: FRET-melting, F21T; conditions: K+ condition, 2 μM compound, 0.2 μM oligonucleotide
[7] = test system: Trypanosoma 9 and 11 chromosomic sequence FTrypBT; experiment: FRET-melting, FTrypBT; conditions: K+ condition, 2 μM compound, 0.2 μM oligonucleotide
[8] = test system: SARS-CoV-2; experiment: microbe, parasite or virus in culture; format: cell-based; conditions: Severe acute respiratory syndrome coronavirus 2; A549 cells expressing human ACE2, 72 hours after infection, RT-PCR of the N-gene; read-out: IC50 RTqPCR SARS-CoV-2
[9] = Cytotoxicity evaluation, MTT; format: cell-based, human; conditions: HepG2 cells (hepatocarcinoma-derived, ATCC HB-8065); human HepG2 cells, 72 hours, MTT
Experimental: as §1, §2

[10] = test system: Plasmodium telomeric sequence FPf8T; experiment: FRET-melting, FPf8T; conditions: K+ condition, 2 μM compound, 0.2 μM oligonucleotide
[11] = test system: Plasmodium telomeric sequence FPf1T; experiment: FRET-melting, FPf1T; conditions: K+ condition, 2 μM compound, 0.2 μM oligonucleotide
[12] = Plasmodium falciparum, 3D7, 48 h, read-out: IC50 Plasmodium falciparum 3D7, chloroquine-sensitive strain 3D7, 48-hour incubation
[13] = Plasmodium falciparum, W2, 48 h, read-out: IC50 Plasmodium falciparum W2, chloroquine-resistant strain W2, 48-hour incubation

Row | Compound | FRET-melting values in K+ conditions at 2 μM ΔTm FdxT [1] | IC50 ([2]; read-out: IC50 Plasmodium falciparum 3D7, chloroquine-sensitive strain 3D7, 48-hour incubation) | IC50 [3] | IC50 ([4]; 69-hour incubation, Alamar Blue) | IC50 ([5]; read-out: IC50 Plasmodium falciparum W2, chloroquine-resistant strain W2, 48-hour incubation) | FRET-melting values in K+ conditions at 2 μM ΔTm F21T [6] | FRET-melting values in K+ conditions at 2 μM ΔTm FtryBT [7] | IC50 [8] | IC50 [2, 12] | IC50 at 72 h [9] | IC50 ([4]; Trypanosoma brucei, 69 h) | IC50 [5, 13] | FRET-melting values in K+ conditions at 2 μM ΔTm FPf8T [10] | FRET-melting values in K+ conditions at 2 μM ΔTm FPf1T [11] | IC50 ([4]; Trypanosoma brucei, 69-hour incubation, Alamar Blue)
1 | 2-(3-Dimethylaminopropylamino)-4-{4-[(4-dimethylaminopropyl)aminomethyl]phenyl}-7-phenyl-7H-pyrrolo[2,3-d]pyrimidine oxalate [Compound 14B] | −0.7 °C | 1.48 ± 0.29 µM | 13.5 µM | 0.89 ± 0.09 µM | 0.29 ± 0.1 µM | – | – | – | – | – | – | – | – | – | –
2 | CN(C)CCCNCc1ccc(-c2nc(-c3ccc(CNCCCN(C)C)cc3)c3ccn(-c4ccccc4)c3n2)cc1 [Compound 1B, 2,4-bis{4-[(3-dimethylaminopropyl)aminomethyl]phenyl}-7-phenyl-7H-pyrrolo[2,3-d]pyrimidine oxalate] | 1.2 °C | – | – | – | – | 22.8 °C | 20.5 °C | 0.33 µM | 2.22 ± 0.12 µM | 1.65 µM | 0.55 ± 0.07 µM | 2.71 ± 0.14 µM | 23.5 °C | 23.6 °C | –
3 | CN(C)CCCNCc1ccc(-c2nc(-c3ccc(CNCCCN(C)C)cc3)c3ccn(-c4ccc(CNCCCN(C)C)cc4)c3n2)cc1 [Compound 13B, 2,4,7-Tri{4-[(3-dimethylaminopropyl)aminomethyl]phenyl}-7H-pyrrolo[2,3-d]pyrimidine oxalate] | 5.4 °C | – | – | – | – | 29.1 °C | 30.7 °C | 0.17 µM | 2.44 ± 1.27 µM | 26.7 µM | 0.86 ± 0.07 µM | 10.6 ± 0.69 µM | 34.6 °C | 33.1 °C | –
4 | CN1CCN(CCCNCc2ccc(-c3nc(-c4ccc(CNCCCN5CCN(C)CC5)cc4)c4ccsc4n3)cc2)CC1 [Compound 27B, 2,4-Bis{4-[(3-(4-methylpiperazin-1-yl)propyl)aminomethyl]phenyl}thieno[2,3-d]pyrimidine oxalate] | −0.10 °C | – | – | – | – | 9.72 °C | 7.9 °C | – | 1.95 ± 0.68 µM | 11.2 µM | 0.89 ± 0.1 µM | 4.18 ± 0.03 µM | 9.0 °C | 9.6 °C | –
5 | CN(C)CCCNCc1ccc(-c2nc(-c3ccc(CNCCCN(C)C)cc3)c3sccc3n2)cc1 [Compound 29B, 2,4-Bis{4-[(4-dimethylaminopropyl)aminomethyl]phenyl}thieno[3,2-d]pyrimidine oxalate] | 1.8 °C | – | – | – | – | 19.0 °C | 17.1 °C | – | 1.37 ± 0.24 µM | 3.19 µM | – | 2.17 ± 0.41 µM | 20.9 °C | 20.1 °C | 0.14 ± 0.02 µM
